In US11065202B2, “Multi-component nanochains” (CASE WESTERN RESERVE UNIVERSITY, priority 2011, dated 2021):

Tests used:
MAT B III tumors = assay: Histological evaluation of apoptosis (TUNEL), rat model; format: in vivo, rats; conditions: 5 mg/kg, IV
Procedure: The rat MAT B III and the mouse 4T1 models were used in the histological studies. Animals treated with DOX-NC were exposed to the RF field 24 hours post-injection. After 24 hours from the application of the RF field, the animals were anesthetized with an IP injection of ketamine/xylazine and transcardially perfused with heparinized PBS followed by 4% paraformaldehyde in PBS. Controls included animals treated with DOX-NC (no RF), 35-nm liposomal DOX (with RF), 100-nm liposomal DOX (with RF), free DOX, RF alone and saline. The tumors were explanted and post-fixed overnight in 4% paraformaldehyde in PBS. The fixed tumors were soaked in 30% sucrose (w/v) in PBS at 4° C. for cryosectioning. Serial sections of 12 μm thickness were collected using a cryostat (Leica CM 300).
To visualize the tumor microvasculature, the tissue slices were immunohistochemically stained for the specific endothelial antigen CD31 (BD Biosciences, Pharmingen). The tissues were also stained with the nuclear stain DAPI. […] Direct fluorescence (red) imaging of tumor sections were performed for imaging DOX. Apoptosis was detected using a TUNEL assay (Promega). […] The total number of cells was counted based on the nuclear stain (DAPI) in multiple histological sections per tumor (minimum 20), whereas apoptotic cells were quantified based on TUNEL-stained nuclei.

[1] = test system: 13762 MAT B III tumor model; assay: Tumor growth and survival study; format: in vivo, rats; conditions: single treatment 0.5 mg/kg DOX, without RF
Text: The rat tumor model was established by a subcutaneous injection of 1×10^6 13762 MAT B III cells into the right flank of female Fisher rats. Mouse tumors were generated orthotopically in female BALB/c mice by injection of 0.5×10^6 4 T1 cells into the inguinalmammary fat pad. Once the appropriate tumor size was established (diameter ˜0.5 cm), the animals were used in the in vivo studies. Each cell line required different lag times to produce a tumor lesion of about 0.5 cm in size (5 and 8 days for the MAT B III and 4T1 model, respectively). Based on our prior experience, we chose this tumor size as the starting point of the animal studies, since the primary tumor mass is sufficiently large to present angiogenic, necrotic and invasive areas, and therefore may be more informative and relevant to human disease.
Once the appropriate tumor sizes were established (diameter ˜0.5 cm), the rat tumor model was IV injected with DOX-NC at a dose of 0.5 mg/kg DOX. After 24 hours from injection, animals were exposed to the RF field operated as described previously. Following the same dose and schedule, control groups included animals treated with DOX-NC (but no RF), only RF, liposomal DOX, liposomal DOX with RF, free DOX, and saline. […] The tumor growth was monitored every day using caliper measurements. […] Time of death was determined to be the following day.

COc1cccc2c1C(=O)c1c(O)c3c(c(O)c1C2=O)C[C@@](O)(C(=O)CO)C[C@@H]3O[C@H]1C[C@H](N)[C@H](O)[C@H](C)O1 [free DOX, doxorubicin]
apoptotic cells in tumor (visual inspection) (MAT B III tumors): substantial number of apoptotic cells
tumor growth [1]: failed to produce any therapeutic benefits
